Legend:
P. aeruginosa = assay: MIC/MBC broth microdilution, Example 1; assay type: cell-based, Pseudomonas aeruginosa; details: Example 1 CS NPs
Procedure: (§1) To evaluate antibacterial efficacy of the CS NPs, their minimum inhibitory concentration (MIC) and minimum bactericidal concentration (MBC) were assessed against 5 reference bacterial strains and 39 clinical isolates of carbapenem-resistant A. baumannii, P. aeruginosa, E. coli, and K. pneumoniae.
(§2) Reference bacterial stains were purchased from ATCC. Clinical isolates of carbapenem-resistant bacteria were obtained from National Health Research Institutes (NHRI) and Tri-Service General Hospital (TSGH). MIC is defined as the lowest concentration of antibiotics required to inhibit the growth of bacteria. MBC is defined as the lowest concentration of antibiotics required to eradicate microorganisms. The MICs of CS and the CS NPs were determined using a broth microdilution method. Bacterial suspensions were adjusted to a turbidity of McFarland 0.5±0.05 and cultured overnight with different concentrations of CS or CS NPs. A control group without antimicrobial treatment was prepared as a reference. Following overnight incubation, solution turbidity was determined by visual inspection. Culture wells with no observable turbidity were further sub-cultured for MBC evaluation. Solutions from the clear wells were deposited onto an agar plate and cultured overnight to determine the MBCs.

K. pneumoniae [1] = assay: MIC/MBC broth microdilution, Example 1; assay type: cell-based, Klebsiella pneumoniae; details: Example 1 CS NPs
Procedure: as §1, §2

E. coli = assay: MIC/MBC broth microdilution, Example 2; assay type: cell-based; details: Example 2 CS NPs
Procedure: as §2
(§3) To evaluate the antibacterial efficacy of the CS NPs of this study, their MIC and MBC were assessed against 5 reference bacterial strains and 20 clinical isolates of carbapenem-resistant A. baumannii, E. coli, K. pneumoniae, and P. aeruginosa according to the procedures set forth in EXAMPLE 1. Reference bacterial stains were purchased from ATCC. Carbapenem-resistant clinical isolated were obtained from NHRI.

K. pneumoniae [2] = assay: MIC/MBC broth microdilution, Example 2; assay type: cell-based, Klebsiella pneumoniae; details: Example 2 CS NPs
Procedure: as §2, §3

E. Coli ATCC 25922 = assay: MIC and MBC of different treatments, Example 3; assay type: cell-based
Procedure: as §2

[3] = Maximum tolerated dose, intravenous; details: BALB/c mice, tail vein, Example 1 study
Description: See e,g., Li et al, International Journal of Pharmaceutics, 2016, 515, 20-29; and Barnett et al., British Journal of Pharmacology and Chemotherapy, 1964, 23, 552-574. The highest dosage at which all examined subjects remained alive was defined as the MTD.
For this study, mice (8 weeks, Balb/c mice) were obtained from Bio-LASCO Taiwan Co., Ltd (Taipei, Taiwan). […] The highest dosage at which all examined subjects remained alive was defined as the MTD.

A. baumannii 17978 = assay: Murine model of A. baumannii pneumonia, survival; assay type: in vivo; details: C57BL/6 mice, 5 mg/kg i.v. twice a day
Procedure: Briefly, A. baumannii 17978 were grown in 30 mL LB broth under shaking at 37° C. to reach the mid-logarithmic phase. The bacteria were then pelleted by centrifugation at 4,000 g for 15 minutes. The bacteria pellet was resuspended in PBS and mixed with 5% mucin derived from porcine stomach (type 3; Sigma-Aldrich, Taiwan).
To induce A. baumannii pneumonia, 8-week-old C57BL/6 mice (National Laboratory Animal Center, Taiwan) were first anesthetized with 2% tribromoethanol (Avertin; 0.018 mL/g). 6.07×10^8 CFU of A. baumannii 17978 were then administered to the mice via intra-tracheal injection to induce pneumonia (FIG. 4A). At 2 hours post-inoculation, the mice were treated twice a day with PBS (as the control), CS, or CS NPs at 5 mg/kg via intravenous injections.
The efficacy between CS and the CS NPs was compared by survival analysis. The difference in survival among the groups was analyzed by a Log-rank test using GraphPad Prism. Treatment efficacy of CS and CS NPs was observed 36 hour post-infection as no mortality was recorded in either of the two drug treatment groups whereas 37.5% of the control group animals were deceased. […] The survival outcome supports retention of CS's antimicrobial activity following nanoparticle assembly.

[4] = clinical carbapenem-resistant P. aeruginosa NHRI 1
[5] = clinical carbapenem-resistant P. aeruginosa NHRI 2
[6] = clinical carbapenem-resistant P. aeruginosa NHRI 3
[7] = clinical carbapenem-resistant P. aeruginosa NHRI 4
[8] = clinical carbapenem-resistant P. aeruginosa NHRI 5
[9] = reference strain P. aeruginosa 27853
[10] = clinical carbapenem-resistant K. pneumoniae NHRI 1
[11] = clinical carbapenem-resistant K. pneumoniae NHRI 2
[12] = clinical carbapenem-resistant K. pneumoniae NHRI 4
[13] = clinical carbapenem-resistant K. pneumoniae NHRI 5
[14] = clinical carbapenem-resistant K. pneumoniae TSGH 1
[15] = clinical carbapenem-resistant K. pneumoniae TSGH 3
[16] = clinical carbapenem-resistant K. pneumoniae TSGH 5
[17] = clinical carbapenem-resistant K. pneumoniae TSGH 7
[18] = clinical carbapenem-resistant K. pneumoniae TSGH 9
[19] = clinical carbapenem-resistant K. pneumoniae TSGH 11
[20] = clinical carbapenem-resistant K. pneumoniae TSGH 13
[21] = clinical carbapenem-resistant K. pneumoniae TSGH 15
[22] = clinical carbapenem-resistant K. pneumoniae TSGH 16
[23] = clinical carbapenem-resistant K. pneumoniae TSGH 17
[24] = clinical carbapenem-resistant K. pneumoniae TSGH 18
[25] = clinical carbapenem-resistant K. pneumoniae TSGH 19
[26] = clinical carbapenem-resistant isolate E. coli NHRI 1
[27] = clinical carbapenem-resistant isolate E. coli NHRI 2
[28] = clinical carbapenem-resistant isolate E. coli NHRI 3
[29] = clinical carbapenem-resistant isolate E. coli NHRI 4
[30] = clinical carbapenem-resistant isolate E. coli NHRI 5
[31] = clinical carbapenem-resistant isolate K. pneumoniae NHRI 1
[32] = clinical carbapenem-resistant isolate K. pneumoniae NHRI 2
[33] = clinical carbapenem-resistant isolate K. pneumoniae NHRI 3
[34] = clinical carbapenem-resistant isolate K. pneumoniae NHRI 4
[35] = clinical carbapenem-resistant isolate K. pneumoniae NHRI 5

colistin [CS]
MBC (P. aeruginosa; [4]): 2 µg/mL
MIC (P. aeruginosa; [4]): 2 µg/mL
MBC (P. aeruginosa; [5]): 4 µg/mL
MIC (P. aeruginosa; [5]): 2 µg/mL
MBC (P. aeruginosa; [6]): 8 µg/mL
MIC (P. aeruginosa; [6]): 2 µg/mL
MBC (P. aeruginosa; [7]): 8 µg/mL
MIC (P. aeruginosa; [7]): 4 µg/mL
MBC (P. aeruginosa; [8]): 4 µg/mL
MIC (P. aeruginosa; [8]): 2 µg/mL
MBC (P. aeruginosa; [9]): 1 µg/mL
MIC (P. aeruginosa; [9]): 1 µg/mL
MBC (K. pneumoniae [1]; [10]): 4 µg/mL
MIC (K. pneumoniae [1]; [10]): 2 µg/mL
MBC (K. pneumoniae [1]; [11]): 2 µg/mL
MIC (K. pneumoniae [1]; [11]): 2 µg/mL
MBC (K. pneumoniae [1]; [12]): 2 µg/mL
MIC (K. pneumoniae [1]; [12]): 2 µg/mL
MBC (K. pneumoniae [1]; [13]): 2 µg/mL
MIC (K. pneumoniae [1]; [13]): 2 µg/mL
MBC (K. pneumoniae [1]; [14]): 2 µg/mL
MIC (K. pneumoniae [1]; [14]): 2 µg/mL
MBC (K. pneumoniae [1]; [15]): 1 µg/mL
MIC (K. pneumoniae [1]; [15]): 1 µg/mL
MBC (K. pneumoniae [1]; [16]): 1 µg/mL
MIC (K. pneumoniae [1]; [16]): 1 µg/mL
MBC (K. pneumoniae [1]; [17]): 1 µg/mL
MIC (K. pneumoniae [1]; [17]): 1 µg/mL
MBC (K. pneumoniae [1]; [18]): 2 µg/mL
MIC (K. pneumoniae [1]; [18]): 1 µg/mL
MBC (K. pneumoniae [1]; [19]): 4 µg/mL
MIC (K. pneumoniae [1]; [19]): 4 µg/mL
MBC (K. pneumoniae [1]; [20]): 2 µg/mL
MIC (K. pneumoniae [1]; [20]): 1 µg/mL
MBC (K. pneumoniae [1]; [21]): 1 µg/mL
MIC (K. pneumoniae [1]; [21]): 1 µg/mL
MBC (K. pneumoniae [1]; [22]): 2 µg/mL
MIC (K. pneumoniae [1]; [22]): 2 µg/mL
MBC (K. pneumoniae [1]; [23]): 1 µg/mL
MIC (K. pneumoniae [1]; [23]): 1 µg/mL
MBC (K. pneumoniae [1]; [24]): 1 µg/mL
MIC (K. pneumoniae [1]; [24]): 1 µg/mL
MBC (K. pneumoniae [1]; [25]): 4 µg/mL
MIC (K. pneumoniae [1]; [25]): 1 µg/mL
MBC (E. coli; [26]): 2 µg/mL
MIC (E. coli; [26]): 2 µg/mL
MBC (E. coli; [27]): 2 µg/mL
MIC (E. coli; [27]): 1 µg/mL
MBC (E. coli; [28]): 2 µg/mL
MIC (E. coli; [28]): 1 µg/mL
MBC (E. coli; [29]): 1 µg/mL
MIC (E. coli; [29]): 1 µg/mL
MBC (E. coli; [30]): 0.5 µg/mL
MIC (E. coli; [30]): 0.5 µg/mL
MBC (E. coli; reference strain E. coli 25922): 2 µg/mL
MIC (E. coli; reference strain E. coli 25922): 1 µg/mL
MBC (K. pneumoniae [2]; [31]): 4 µg/mL
MIC (K. pneumoniae [2]; [31]): 1 µg/mL
MBC (K. pneumoniae [2]; [32]): 1 µg/mL
MIC (K. pneumoniae [2]; [32]): 1 µg/mL
MBC (K. pneumoniae [2]; [33]): 2 µg/mL
MIC (K. pneumoniae [2]; [33]): 1 µg/mL
MBC (K. pneumoniae [2]; [34]): 2 µg/mL
MIC (K. pneumoniae [2]; [34]): 2 µg/mL
MBC (K. pneumoniae [2]; [35]): 4 µg/mL
MIC (K. pneumoniae [2]; [35]): 1 µg/mL
MBC (E. Coli ATCC 25922): 4 µg/mL
MIC (E. Coli ATCC 25922): 2 µg/mL
MTD [3]: 10 mg/kg
mortality (A. baumannii 17978; 36 hour post-infection): no mortality
surviving mice out of 8 assessed animals (A. baumannii 17978; 72 hours of observation): 4

Source: patent US12569534B2, “Therapeutic nanoparticles by coacervate complexation and their use for treating bacteria” (priority 2018, dated 2026)
